Results published in ChEMBL document CHEMBL3808275, “Design, synthesis and SARs of novel salicylanilides as potent inhibitors of RANKL-induced osteoclastogenesis and bone resorption” (Eur J Med Chem, 2016).
Active and inactive are the calls of the source. The rule behind the calls is not given here.

Key:
RAW264.7 [1] = test: Inhibition of RANKL-induced osteoclast differentiation in mouse RAW264.7 cells assessed as reduction in TRAP-positive multinucleated cells level incubated with compound in presence of RANKL for 4 days by TRAP staining based light microscopic analysis relative to RANKL alone; type: functional, cell-based; settings: RAW264.7, 96 h
[2] = molecular target: T1, Nuclear factor of activated T-cells, cytoplasmic 1 (Mus musculus) (UniProt O88942); test: Inhibition of RANKL-induced NFATc1 translocation in mouse RAW264.7 cells at 2 uM incubated with compound in presence of RANKL for 24 hrs by propidium iodide staining based Leica fluorescent microscopic analysis; type: cell-based
T1 sequence (whole entry): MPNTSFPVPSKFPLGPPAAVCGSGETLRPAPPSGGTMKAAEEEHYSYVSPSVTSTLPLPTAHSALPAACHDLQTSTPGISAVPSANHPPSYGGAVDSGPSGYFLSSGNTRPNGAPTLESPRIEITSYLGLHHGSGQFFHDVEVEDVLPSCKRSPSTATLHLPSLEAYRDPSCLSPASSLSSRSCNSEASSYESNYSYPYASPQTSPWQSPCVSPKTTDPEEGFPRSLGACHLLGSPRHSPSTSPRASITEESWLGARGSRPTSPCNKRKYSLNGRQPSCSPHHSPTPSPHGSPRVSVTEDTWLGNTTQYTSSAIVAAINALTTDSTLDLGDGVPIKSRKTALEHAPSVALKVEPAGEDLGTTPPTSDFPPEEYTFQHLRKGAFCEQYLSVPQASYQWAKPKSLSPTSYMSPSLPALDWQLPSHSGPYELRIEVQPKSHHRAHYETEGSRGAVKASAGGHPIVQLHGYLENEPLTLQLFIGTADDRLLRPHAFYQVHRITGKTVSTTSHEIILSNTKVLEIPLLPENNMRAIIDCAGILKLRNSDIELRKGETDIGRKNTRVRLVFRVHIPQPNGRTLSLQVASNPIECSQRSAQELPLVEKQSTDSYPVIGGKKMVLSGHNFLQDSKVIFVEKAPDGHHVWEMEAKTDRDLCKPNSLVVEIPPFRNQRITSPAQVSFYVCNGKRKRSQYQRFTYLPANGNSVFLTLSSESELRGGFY

[3] = Cytotoxicity against mouse RAW264.7 cells assessed as survival rate at 2.5 uM after 24 hrs by MTT assay; type: cell-based; settings: read-out: Survival
RAW264.7 [4] = test: Cytotoxicity against mouse RAW264.7 cells assessed as reduction in cell viability at 5 uM after 24 hrs by MTT assay; type: cell-based; settings: raw264.7, 24 h
RAW264.7 [5] = test: Inhibition of RANKL-induced osteoclastic bone resorption in mouse RAW264.7 cells assessed as bone resorption area at 1.5 uM incubated with compound in presence of RANKL for 4 days by pit formation assay; type: functional; parameters: scale not given: the % may be the effect or the level left
[6] = molecular target: T1, Nuclear factor of activated T-cells, cytoplasmic 1 (Mus musculus); test: Inhibition of RANKL-induced NFATc1 translocation in mouse RAW264.7 cells at 1.5 uM incubated with compound in presence of RANKL for 24 hrs by propidium iodide staining based Leica fluorescent microscopic analysis; type: cell-based
RAW264.7 [7] = test: Inhibition of RANKL-induced osteoclast differentiation in mouse RAW264.7 cells assessed as TRAP-positive multinucleated cells level at 2.5 uM incubated with compound in presence of RANKL for 4 days by TRAP staining based light microscopic analysis relative to RANKL alone; type: functional; parameters: scale not given: the % may be the effect or the level left
RAW264.7 [8] = test: Inhibition of RANKL-induced osteoclastic bone resorption in mouse RAW264.7 cells assessed as bone resorption area at 2 uM incubated with compound in presence of RANKL for 4 days by pit formation assay; type: functional; parameters: scale not given: the % may be the effect or the level left
[9] = Cytotoxicity against mouse RAW264.7 cells assessed as reduction in cell viability after 24 hrs by MTT assay; type: cell-based
RAW264.7 [10] = test: Inhibition of RANKL-induced NFATc1 protein expression in mouse RAW264.7 cells at 1.5 and 2 uM incubated with compound in presence of RANKL for 24 hrs by propidium iodide staining based Leica fluorescent microscopic analysis; type: functional, cell-based
RAW264.7 [11] = test: Inhibition of RANKL-induced osteoclastic bone resorption in mouse RAW264.7 cells assessed as bone resorption area at 1 uM incubated with compound in presence of RANKL for 4 days by pit formation assay; type: functional; parameters: scale not given: the % may be the effect or the level left

## O=C(Nc1ccc(I)cc1F)c1cc(F)ccc1O
RAW264.7 [1]
  IC50: 1.57 µM
[2]
  inhibition: Active
[3]
  viability at 24 h, 2.5 µM: 100%
RAW264.7 [4]
  Activity: Toxic
RAW264.7 [5]
  Activity: 63.98%
[6]
  inhibition: Active
RAW264.7 [7]
  Activity: 0.1%
RAW264.7 [8]
  Activity: 23.22%
[9]
  CC50 at 24 h: 7.4 µM
RAW264.7 [10]
  inhibition: Active

## O=c1oc2ccc(F)cc2c(=O)n1-c1ccc(I)cc1F
RAW264.7 [1]
  IC50: 2.05 µM
[2]
  inhibition: Active
[3]
  viability at 24 h, 2.5 µM: 102%
RAW264.7 [4]
  Activity: Toxic
RAW264.7 [5]
  Activity: 42.55%
[6]
  inhibition: Active
RAW264.7 [7]
  Activity: 13.9%
RAW264.7 [8]
  Activity: 16.93%
[9]
  CC50 at 24 h: 6 µM
RAW264.7 [10]
  inhibition: Active
RAW264.7 [11]
  Activity: 73.07%

## O=C(Nc1ccc(I)cc1F)c1cc(Br)ccc1O
RAW264.7 [1]
  IC50: 1.93 µM
[3]
  viability at 24 h, 2.5 µM: 99.6%
RAW264.7 [4]
  Activity: Toxic
RAW264.7 [7]
  Activity: 16%
[9]
  CC50 at 24 h: 6.4 µM

## O=C(Nc1ccc(Cl)cc1F)c1cc(Cl)ccc1O
RAW264.7 [1]
  IC50: 2.12 µM
[3]
  viability at 24 h, 2.5 µM: 109%
RAW264.7 [4]
  Activity: Toxic
RAW264.7 [7]
  Activity: 15.8%
[9]
  CC50 at 24 h: 8 µM
